# Measurements taken from ChEMBL document CHEMBL1800037, “Anti-proliferative activity of aguerin B and a new rare nor-guaianolide lactone isolated from the aerial parts of Centaurea deflexa” (Eur J Med Chem, 2011).
# The source made the active and inactive calls. The calls are words filed in the database; no cut-off is given here.
# Assays:
# MIA PaCa-2 [1] = experiment: Antiproliferative activity against human MIAPaCa2 cells after 48 hrs; type: functional, cell-based; conditions: MIA PaCa-2, 48 h
# MIA PaCa-2 [2] = experiment: Antiproliferative activity against human MIAPaCa2 cells after 72 hrs; type: functional, cell-based; conditions: MIA PaCa-2, 72 h
# [3] = Antiproliferative activity against human COLO320 cells after 48 hrs; type: functional, cell-based; conditions: COLO 320, 48 h
# [4] = Antiproliferative activity against human COLO320 cells after 72 hrs; type: functional, cell-based; conditions: COLO 320, 72 h
# HEK293 = experiment: Antiproliferative activity against human HEK293 cells up to 100 uM; type: cell-based
# MIA PaCa-2 [5] = experiment: Induction of apoptosis in human MIAPaCa2 cells assessed as increase of interneucleosomal DNA fragmentation at 10 uM after 24 hrs; type: functional, cell-based
# COLO 320 [6] = experiment: Induction of apoptosis in human COLO320 cells assessed as increase of interneucleosomal DNA fragmentation at 10 uM after 24 hrs; type: functional, cell-based
# MIA PaCa-2 [7] = experiment: Antiproliferative activity against human MIAPaCa2 cells after 48 to 72 hrs; type: functional, cell-based
# COLO 320 [8] = experiment: Antiproliferative activity against human COLO320 cells after 48 to 72 hrs; type: functional, cell-based
# MIA PaCa-2 [9] = experiment: Antiproliferative activity against human MIAPaCa2 cells; type: functional, cell-based; conditions: TDE = time-dependent effect
# COLO 320 [10] = experiment: Antiproliferative activity against human COLO320 cells; type: functional, cell-based; conditions: TDE = time-dependent effect
# MIA PaCa-2 [11] = experiment: Induction of apoptosis in human MIAPaCa2 cells assessed as increase of interneucleosomal DNA fragmentation at 5 uM after 24 hrs relative to control; type: functional
# COLO 320 [12] = experiment: Induction of apoptosis in human COLO320 cells assessed as increase of interneucleosomal DNA fragmentation at 5 uM after 24 hrs relative to control; type: functional
Structure (SMILES),IC50 (MIA PaCa-2 [1]),IC50 (MIA PaCa-2 [2]),IC50 [3],IC50 [4],Activity (HEK293),Activity (MIA PaCa-2 [5]),Activity (COLO 320 [6]),Activity (MIA PaCa-2 [7]),Activity (COLO 320 [8]),Activity (MIA PaCa-2 [9]),Activity (COLO 320 [10]),fold change (FC) (MIA PaCa-2 [11]),fold change (FC) (COLO 320 [12])
C=C1C[C@H](O)[C@@H]2[C@H](OC(=O)[C@H]2C)[C@H]2CC(=O)C[C@@H]12,25.7 µM,15.9 µM,10 µM,6 µM,Non-toxic,inactive,inactive,Dose-dependent effect,Dose-dependent effect,tde,tde,–,–
C=C(C)C(=O)O[C@H]1CC(=C)[C@@H]2C[C@H](O)C(=C)[C@@H]2[C@H]2OC(=O)C(=C)[C@@H]21 [AGUERIN B],7.5 µM,3.6 µM,3.2 µM,2.6 µM,Non-toxic,–,–,Dose-dependent effect,Dose-dependent effect,tde,tde,>2,>2
O=c1[nH]cc(F)c(=O)[nH]1 [FLUOROURACIL],14 µM,7.4 µM,10 µM,8.7 µM,–,–,–,–,–,–,–,–,–
